Source: patent US10710978B2, “STK4 inhibitors for treatment of hematologic malignancies” (Dana-Farber Cancer Institute, Inc., priority 2015, dated 2020)
“And” between values parts separate entries of the source, which are not always exact repeats. Equal values may be shown once. Read-outs that look alike come from different tables or passages of the source.

How the values were obtained:
Test in all cases: KiNativ assay
Assay type in all cases: binding
p70S6K = p70S6K (Homo sapiens (Human), UniProt P23443); conditions: H929 live cell
Method: (§1) Biochemical IC50s of the compounds of the present disclosure against various kinases were measured in a KiNativ assay. Compounds were screened in duplicate at 10 μM in H929 live cell. IC50 was measured via Mass spectroscopy (MS).

PIP4K2C = PIP4K2C (Homo sapiens (Human), UniProt Q8TBX8); conditions: H929 live cell
Method: as §1

JAK1 domain2 = JAK1 domain2 (Homo sapiens (Human), UniProt P23458); conditions: H929 live cell
Method: as §1

Erk1 = Erk1 (Homo sapiens (Human), UniProt P27361); conditions: H929 live cell
Method: as §1

[1] = test system: RSK1 domain1, RSK2 domain1, RSK3 domain1; conditions: H929 live cell
Method: as §1

NuaK1 = NuaK1 (Homo sapiens (Human), UniProt O60285); conditions: H929 live cell
Method: as §1

RSKL1 = RSKL1 (Homo sapiens (Human), UniProt Q96S38); conditions: H929 live cell
Method: as §1

KHS1 = KHS1 (Homo sapiens (Human), UniProt Q9Y4K4); conditions: H929 live cell
Method: as §1

CaMKK2 = CaMKK2 (Homo sapiens (Human), UniProt Q96RR4); conditions: H929 live cell
Method: as §1

AurB = AurB (Homo sapiens (Human), UniProt Q96GD4); conditions: H929 live cell
Method: as §1

MARK2 = MARK2 (Homo sapiens (Human), UniProt Q7KZI7); conditions: H929 live cell
Method: as §1

NDR1 = NDR1 (Homo sapiens (Human), UniProt Q15208); conditions: H929 live cell
Method: as §1

SGK3 = SGK3 (Homo sapiens (Human), UniProt Q96BR1); conditions: H929 live cell
Method: as §1

TYK2 domain2 = TYK2 domain2 (Homo sapiens (Human), UniProt P29597); conditions: H929 live cell
Method: as §1

PI4KB = PI4KB (Homo sapiens (Human), UniProt Q9UBF8); conditions: H929 live cell
Method: as §1

KSR1, KSR2 = conditions: H929 live cell
Method: as §1

p70S6Kb = p70S6Kb (Homo sapiens (Human), UniProt Q9UBS0); conditions: H929 live cell
Method: as §1

MST2 = MST2 (Homo sapiens (Human), UniProt Q13188); conditions: H929 live cell
Method: as §1

CHK2 = CHK2 (Homo sapiens (Human), UniProt O96017); conditions: H929 live cell
Method: as §1

GSK3A = GSK3A (Homo sapiens (Human), UniProt P49840); conditions: H929 live cell
Method: as §1

CDK7 = CDK7 (Homo sapiens (Human), UniProt P50613); conditions: H929 live cell
Method: as §1

PITSLRE = conditions: H929 live cell
Method: as §1

PRP4 = PRP4 (Homo sapiens (Human), UniProt Q13523); conditions: H929 live cell
Method: as §1

RSK2 domain2 = RSK2 domain2 (Homo sapiens (Human), UniProt P51812); conditions: H929 live cell
Method: as §1

FYN, SRC, YES = conditions: H929 live cell
Method: as §1

TAO1, TAO3 = conditions: H929 live cell
Method: as §1

FRAP = FRAP (Homo sapiens (Human), UniProt P42345); conditions: H929 live cell
Method: as §1

AurA, AurB, AurC = conditions: H929 live cell
Method: as §1

GCK = GCK (Homo sapiens (Human), UniProt Q12851); conditions: H929 live cell
Method: as §1

p38a = p38a (Homo sapiens (Human), UniProt Q16539); conditions: H929 live cell, read-out: % inhibition (range)
Method: as §1

ATR = ATR (Homo sapiens (Human), UniProt Q13535); conditions: H929 live cell
Method: as §1

PKCi = PKCi (Homo sapiens (Human), UniProt P41743); conditions: H929 live cell
Method: as §1

TLK1 = TLK1 (Homo sapiens (Human), UniProt Q9UKI8); conditions: H929 live cell
Method: as §1

LOK = LOK (Homo sapiens (Human), UniProt O94804); conditions: H929 live cell
Method: as §1

Sequence of NuaK1 (O60285 whole entry): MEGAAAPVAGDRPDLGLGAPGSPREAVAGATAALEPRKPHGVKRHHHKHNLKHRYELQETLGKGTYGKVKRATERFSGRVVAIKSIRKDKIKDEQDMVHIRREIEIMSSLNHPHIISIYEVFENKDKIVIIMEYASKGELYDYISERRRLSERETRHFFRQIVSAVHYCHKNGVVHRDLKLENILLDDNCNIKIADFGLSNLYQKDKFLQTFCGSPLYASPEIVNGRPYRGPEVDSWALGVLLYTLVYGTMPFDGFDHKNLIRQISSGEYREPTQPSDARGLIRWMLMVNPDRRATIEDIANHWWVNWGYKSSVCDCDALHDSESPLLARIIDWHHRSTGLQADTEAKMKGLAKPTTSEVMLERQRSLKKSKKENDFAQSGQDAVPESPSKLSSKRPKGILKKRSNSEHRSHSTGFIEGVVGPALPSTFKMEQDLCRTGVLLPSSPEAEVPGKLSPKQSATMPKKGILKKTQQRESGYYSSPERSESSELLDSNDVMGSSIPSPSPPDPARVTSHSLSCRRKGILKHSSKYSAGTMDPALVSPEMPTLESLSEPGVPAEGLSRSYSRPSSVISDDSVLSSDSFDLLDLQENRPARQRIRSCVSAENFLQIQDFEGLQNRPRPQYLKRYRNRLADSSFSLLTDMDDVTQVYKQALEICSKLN
Sequence of CDK7 (P50613 whole entry): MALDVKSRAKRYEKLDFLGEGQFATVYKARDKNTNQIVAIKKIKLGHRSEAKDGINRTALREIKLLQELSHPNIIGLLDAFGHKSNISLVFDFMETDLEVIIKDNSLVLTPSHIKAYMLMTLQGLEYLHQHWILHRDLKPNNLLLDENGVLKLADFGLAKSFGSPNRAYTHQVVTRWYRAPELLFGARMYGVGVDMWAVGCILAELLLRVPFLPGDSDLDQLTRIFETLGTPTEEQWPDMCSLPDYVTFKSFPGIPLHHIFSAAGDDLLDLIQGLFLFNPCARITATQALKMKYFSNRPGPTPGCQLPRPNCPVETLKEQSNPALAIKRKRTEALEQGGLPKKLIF
Sequence of CDK7 (P51946 whole entry partner): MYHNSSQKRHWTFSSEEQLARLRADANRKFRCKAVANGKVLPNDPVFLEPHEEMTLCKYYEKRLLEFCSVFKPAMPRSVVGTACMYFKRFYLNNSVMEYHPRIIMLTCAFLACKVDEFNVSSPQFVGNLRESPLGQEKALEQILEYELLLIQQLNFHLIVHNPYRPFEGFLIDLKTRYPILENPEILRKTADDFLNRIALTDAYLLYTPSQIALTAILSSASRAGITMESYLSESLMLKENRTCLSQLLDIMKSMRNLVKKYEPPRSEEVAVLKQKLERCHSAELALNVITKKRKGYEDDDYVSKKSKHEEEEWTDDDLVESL
Sequence of CDK7 (P51948 whole entry partner): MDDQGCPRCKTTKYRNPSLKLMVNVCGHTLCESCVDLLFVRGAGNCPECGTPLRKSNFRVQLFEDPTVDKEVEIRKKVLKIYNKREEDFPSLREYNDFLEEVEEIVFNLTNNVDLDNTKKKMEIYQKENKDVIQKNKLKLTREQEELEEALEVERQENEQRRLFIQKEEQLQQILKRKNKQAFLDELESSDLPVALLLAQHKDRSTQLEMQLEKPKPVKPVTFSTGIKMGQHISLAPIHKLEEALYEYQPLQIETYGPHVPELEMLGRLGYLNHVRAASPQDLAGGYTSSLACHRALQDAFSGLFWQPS
Sequence of CHK2 (O96017 whole entry): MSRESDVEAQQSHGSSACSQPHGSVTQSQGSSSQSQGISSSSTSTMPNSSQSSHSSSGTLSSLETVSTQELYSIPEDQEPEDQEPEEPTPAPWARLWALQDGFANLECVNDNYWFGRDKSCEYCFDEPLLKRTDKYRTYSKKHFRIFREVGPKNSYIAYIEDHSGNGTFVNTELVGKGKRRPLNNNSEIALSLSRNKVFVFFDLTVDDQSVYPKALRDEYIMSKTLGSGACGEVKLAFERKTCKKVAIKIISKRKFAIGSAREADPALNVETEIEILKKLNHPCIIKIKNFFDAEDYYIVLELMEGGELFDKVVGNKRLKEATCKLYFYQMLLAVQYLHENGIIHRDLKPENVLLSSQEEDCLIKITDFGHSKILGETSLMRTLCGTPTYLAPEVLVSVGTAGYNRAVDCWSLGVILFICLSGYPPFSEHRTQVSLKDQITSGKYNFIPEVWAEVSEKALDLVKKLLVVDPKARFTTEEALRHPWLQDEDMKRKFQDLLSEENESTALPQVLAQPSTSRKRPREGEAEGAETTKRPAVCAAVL
Sequence of CaMKK2 (Q96RR4 whole entry): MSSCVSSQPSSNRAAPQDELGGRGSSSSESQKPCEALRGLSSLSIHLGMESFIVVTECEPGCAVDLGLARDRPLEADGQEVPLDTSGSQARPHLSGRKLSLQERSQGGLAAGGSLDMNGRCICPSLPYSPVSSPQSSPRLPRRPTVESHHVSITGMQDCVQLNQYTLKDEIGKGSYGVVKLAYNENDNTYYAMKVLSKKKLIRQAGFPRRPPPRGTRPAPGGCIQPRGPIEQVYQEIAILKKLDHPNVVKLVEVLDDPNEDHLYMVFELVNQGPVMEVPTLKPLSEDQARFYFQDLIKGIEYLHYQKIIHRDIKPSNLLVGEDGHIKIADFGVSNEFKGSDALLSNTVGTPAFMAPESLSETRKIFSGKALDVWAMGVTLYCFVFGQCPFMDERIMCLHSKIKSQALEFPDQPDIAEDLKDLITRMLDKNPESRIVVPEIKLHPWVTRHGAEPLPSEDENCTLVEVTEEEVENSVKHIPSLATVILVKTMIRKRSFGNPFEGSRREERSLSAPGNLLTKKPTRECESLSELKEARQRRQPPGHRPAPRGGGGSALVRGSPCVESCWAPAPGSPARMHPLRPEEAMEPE
Sequence of GSK3A (P49840 whole entry): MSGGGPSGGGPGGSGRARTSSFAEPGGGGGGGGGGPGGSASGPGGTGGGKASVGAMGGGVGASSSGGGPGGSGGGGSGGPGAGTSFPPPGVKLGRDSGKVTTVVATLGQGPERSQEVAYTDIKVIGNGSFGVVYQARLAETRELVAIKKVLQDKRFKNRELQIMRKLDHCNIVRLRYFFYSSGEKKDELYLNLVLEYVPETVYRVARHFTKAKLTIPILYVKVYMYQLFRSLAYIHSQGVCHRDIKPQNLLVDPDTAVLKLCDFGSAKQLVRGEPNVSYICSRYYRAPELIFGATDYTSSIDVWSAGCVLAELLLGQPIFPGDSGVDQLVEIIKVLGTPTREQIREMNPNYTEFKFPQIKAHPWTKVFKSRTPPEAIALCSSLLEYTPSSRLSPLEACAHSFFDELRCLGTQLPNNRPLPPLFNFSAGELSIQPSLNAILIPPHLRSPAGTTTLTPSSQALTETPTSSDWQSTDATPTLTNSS
Sequence of AurB (Q96GD4 whole entry): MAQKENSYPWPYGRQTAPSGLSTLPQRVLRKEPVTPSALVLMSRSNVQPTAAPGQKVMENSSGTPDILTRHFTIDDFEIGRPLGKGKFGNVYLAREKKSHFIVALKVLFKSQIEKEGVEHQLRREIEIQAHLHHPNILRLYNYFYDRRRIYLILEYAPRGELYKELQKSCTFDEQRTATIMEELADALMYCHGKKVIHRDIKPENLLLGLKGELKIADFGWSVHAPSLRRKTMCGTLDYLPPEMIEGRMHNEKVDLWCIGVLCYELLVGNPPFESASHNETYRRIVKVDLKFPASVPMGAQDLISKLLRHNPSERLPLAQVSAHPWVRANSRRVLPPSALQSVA
Sequence of p70S6Kb (Q9UBS0 whole entry): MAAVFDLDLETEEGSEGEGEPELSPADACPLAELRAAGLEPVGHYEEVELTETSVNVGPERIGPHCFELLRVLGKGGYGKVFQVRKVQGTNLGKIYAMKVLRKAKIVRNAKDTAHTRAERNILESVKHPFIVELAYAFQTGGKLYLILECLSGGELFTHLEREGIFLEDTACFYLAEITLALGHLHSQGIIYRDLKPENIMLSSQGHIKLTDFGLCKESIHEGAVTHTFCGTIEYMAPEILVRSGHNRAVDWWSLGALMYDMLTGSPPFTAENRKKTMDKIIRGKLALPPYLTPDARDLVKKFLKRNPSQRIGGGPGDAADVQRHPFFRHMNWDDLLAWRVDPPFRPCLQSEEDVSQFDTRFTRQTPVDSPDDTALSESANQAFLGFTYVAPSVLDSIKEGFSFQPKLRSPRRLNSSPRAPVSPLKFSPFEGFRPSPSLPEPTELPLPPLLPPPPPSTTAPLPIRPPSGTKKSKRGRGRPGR
Sequence of MARK2 (Q7KZI7 whole entry): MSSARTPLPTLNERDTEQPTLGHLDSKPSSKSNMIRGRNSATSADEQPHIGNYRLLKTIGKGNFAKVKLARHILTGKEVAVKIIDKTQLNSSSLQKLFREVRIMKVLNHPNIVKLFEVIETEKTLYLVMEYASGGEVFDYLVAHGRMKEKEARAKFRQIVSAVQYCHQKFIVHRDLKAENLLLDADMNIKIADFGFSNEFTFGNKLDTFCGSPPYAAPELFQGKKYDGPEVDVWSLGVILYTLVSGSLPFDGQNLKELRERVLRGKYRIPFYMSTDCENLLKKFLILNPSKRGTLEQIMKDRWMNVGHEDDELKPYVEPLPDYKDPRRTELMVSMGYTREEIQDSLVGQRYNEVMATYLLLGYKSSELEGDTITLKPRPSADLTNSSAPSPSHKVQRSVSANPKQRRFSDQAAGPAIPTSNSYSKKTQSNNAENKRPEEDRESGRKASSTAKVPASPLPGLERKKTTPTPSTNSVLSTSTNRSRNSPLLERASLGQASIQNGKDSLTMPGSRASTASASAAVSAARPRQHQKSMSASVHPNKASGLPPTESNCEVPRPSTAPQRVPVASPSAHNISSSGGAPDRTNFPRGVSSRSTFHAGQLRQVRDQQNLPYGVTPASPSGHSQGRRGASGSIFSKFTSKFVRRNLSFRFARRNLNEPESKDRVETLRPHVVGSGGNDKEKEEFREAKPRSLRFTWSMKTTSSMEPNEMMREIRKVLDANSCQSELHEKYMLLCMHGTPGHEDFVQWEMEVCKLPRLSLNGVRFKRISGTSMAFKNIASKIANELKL

Nc1ncc(-c2cccc3ncsc23)cc1-c1ccc2c(c1)CCNC2=O [Compound I-13, 6-(2-amino-5-(benzo[d]thiazol-7-yl)pyridin-3-yl)-3,4-dihydroisoquinolin-1(2H)-one]
inhibition at 10 µM (p70S6K; read-out: % inhibition (range)): 0%
inhibition at 10 µM (p70S6K; read-out: inhibition (10 μM)): -14.3%
inhibition at 10 µM (PIP4K2C; read-out: % inhibition (range)): 35 to 50%
inhibition at 10 µM (PIP4K2C; read-out: inhibition (10 μM)): 42%
inhibition at 10 µM (JAK1 domain2; read-out: % inhibition (range)): 0%
inhibition at 10 µM (JAK1 domain2; read-out: inhibition (10 μM)): -16%
inhibition at 10 µM (Erk1; read-out: % inhibition (range)): 75 to 90%
inhibition at 10 µM (Erk1; read-out: inhibition (10 μM)): 75%
% inhibition (range) ([1]; 10 μM): 0.0%
inhibition (10 μM) [1]: 13.1%
% inhibition (range) (NuaK1; 10 μM): 50-75% and 75-90%
inhibition (10 μM) (NuaK1): 83.7%
inhibition at 10 µM (NuaK1; read-out: inhibition (10 μM)): 71.7%
inhibition at 10 µM (RSKL1; read-out: % inhibition (range)): 0%
inhibition at 10 µM (RSKL1; read-out: inhibition (10 μM)): 1.6%
inhibition at 10 µM (KHS1; read-out: % inhibition (range)): 35 to 50%
inhibition at 10 µM (KHS1; read-out: inhibition (10 μM)): 47.7%
inhibition at 10 µM (CaMKK2; read-out: % inhibition (range)): 50 to 75%
inhibition at 10 µM (CaMKK2; read-out: inhibition (10 μM)): 74.9%
inhibition at 10 µM (AurB; read-out: % inhibition (range)): 0%
inhibition at 10 µM (AurB; read-out: inhibition (10 μM)): 20.7%
inhibition at 10 µM (MARK2; read-out: % inhibition (range)): 0%
inhibition at 10 µM (MARK2; read-out: inhibition (10 μM)): 32.3%
inhibition at 10 µM (NDR1; read-out: % inhibition (range)): 0%
inhibition at 10 µM (NDR1; read-out: inhibition (10 μM)): 13%
inhibition at 10 µM (SGK3; read-out: % inhibition (range)): 0%
inhibition at 10 µM (SGK3; read-out: inhibition (10 μM)): 13.1%
inhibition at 10 µM (TYK2 domain2; read-out: % inhibition (range)): 0%
inhibition at 10 µM (TYK2 domain2; read-out: inhibition (10 μM)): 0.6%
inhibition at 10 µM (PI4KB; read-out: % inhibition (range)): 0%
inhibition at 10 µM (PI4KB; read-out: inhibition (10 μM)): 34.8%
% inhibition (range) (KSR1, KSR2; 10 μM): 0.0%
inhibition (10 μM) (KSR1, KSR2): −6.2%
inhibition at 10 µM (p70S6Kb; read-out: % inhibition (range)): 0%
inhibition at 10 µM (p70S6Kb; read-out: inhibition (10 μM)): -17.4%
inhibition at 10 µM (MST2; read-out: % inhibition (range)): 75 to 90%
inhibition at 10 µM (MST2; read-out: inhibition (10 μM)): 85.5%
inhibition at 10 µM (CHK2; read-out: % inhibition (range)): 0%
inhibition at 10 µM (CHK2; read-out: inhibition (10 μM)): 19.7%
inhibition at 10 µM (GSK3A; read-out: % inhibition (range)): > 90%
inhibition at 10 µM (GSK3A; read-out: inhibition (10 μM)): 91.6%
inhibition at 10 µM (CDK7; read-out: % inhibition (range)): 0%
inhibition at 10 µM (CDK7; read-out: inhibition (10 μM)): 32.9%
% inhibition (range) (PITSLRE; 10 μM): 0.0%
inhibition (10 μM) (PITSLRE): −3.6%
inhibition at 10 µM (PRP4; read-out: % inhibition (range)): 50 to 75%
inhibition at 10 µM (PRP4; read-out: inhibition (10 μM)): 73.4%
inhibition at 10 µM (RSK2 domain2; read-out: % inhibition (range)): 0%
inhibition at 10 µM (RSK2 domain2; read-out: inhibition (10 μM)): 3.8%
% inhibition (range) (FYN, SRC, YES; 10 μM): 0.0%
inhibition (10 μM) (FYN, SRC, YES): 0.3%
% inhibition (range) (TAO1, TAO3; 10 μM): 0.0%
inhibition (10 μM) (TAO1, TAO3): 10.3%
inhibition at 10 µM (FRAP; read-out: % inhibition (range)): 0%
inhibition at 10 µM (FRAP; read-out: inhibition (10 μM)): 32.5%
% inhibition (range) (AurA, AurB, AurC; 10 μM): 0.0%
inhibition (10 μM) (AurA, AurB, AurC): 17.7%
inhibition at 10 µM (GCK; read-out: % inhibition (range)): 75 to 90%
inhibition at 10 µM (GCK; read-out: inhibition (10 μM)): 77.3%
inhibition at 10 µM (p38a): 0%
inhibition at 10 µM (ATR; read-out: % inhibition (range)): 0%
inhibition at 10 µM (ATR; read-out: inhibition (10 μM)): -16.1%
inhibition at 10 µM (PKCi; read-out: % inhibition (range)): 0%
inhibition at 10 µM (PKCi; read-out: inhibition (10 μM)): 21.4%
inhibition at 10 µM (TLK1; read-out: % inhibition (range)): 0%
inhibition at 10 µM (TLK1; read-out: inhibition (10 μM)): 8.6%
inhibition at 10 µM (LOK; read-out: % inhibition (range)): 50 to 75%
inhibition at 10 µM (LOK; read-out: inhibition (10 μM)): 61.5%
